Where “and” joins values, the source holds several entries; their conditions need not be identical. Equal entries are not always repeated.
Tests used:
[1] = system: NIH3T3 cells stably expressing the mCherry-GFP-LC3 reporter; assay: Macroautophagy activity, mCherry-GFP-LC3 reporter; type: cell-based, mouse
Experimental: Cells were transduced with a lentiviral vector expressing mCherry-GFP-LC3[35], fixed and flux determined as the conversion of dual fluorescence puncta (autophagosomes) into only red fluorescent puncta (autolysosomes). Flux was also measured by immunoblot for LC3 in cells incubated for 6 h with 20 mM NH4Cl/100 μM leupeptin, by discounting the intensity of LC3 in non-treated cells from that in cells treated with the inhibitors.

[2] = system: CMA network components in NIH3T3 cells; assay: qPCR of CMA network components and CMA activation score; type: cell-based, mouse; set-up: LAMP2A mRNA level / HSP90AB1 mRNA level / HSP40 mRNA level / RAC1 mRNA level / AKT1 mRNA level / AKT2 mRNA level / CTSA mRNA level / NFATC1 mRNA level / HSC70 mRNA level / NCOR1 mRNA level / NFE2L2 mRNA level / RAB11A mRNA level / RARa mRNA level / HSP90AA1 mRNA level / EEF1A1 mRNA level / RICTOR mRNA level: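 fold of untreated cells after 20 µM for 24 h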; key to CMA activation score: weighted (LAMP-2A ×2), directed (±1) average of CMA network expression; details: individual replicate values;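 for AKT1 mRNA level: fold of untreated cells after 20 µM for 24 h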;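 for AKT2 mRNA level: fold of untreated cells after 20 µM for 24 h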;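 for CTSA mRNA level: fold of untreated cells after 20 µM for 24 h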;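 for HSC70 mRNA level: fold of untreated cells after 20 µM for 24 h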;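 for HSP40 mRNA level: fold of untreated cells after 20 µM for 24 h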;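 for HSP90AA1 mRNA level: fold of untreated cells after 20 µM for 24 h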;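 for HSP90AB1 mRNA level: fold of untreated cells after 20 µM for 24 h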;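 for LAMP2A mRNA level: fold of untreated cells after 20 µM for 24 h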;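 for NCOR1 mRNA level: fold of untreated cells after 20 µM for 24 h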;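 for NFATC1 mRNA level: fold of untreated cells after 20 µM for 24 h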;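 for NFE2L2 mRNA level: fold of untreated cells after 20 µM for 24 h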;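 for PHLPP1 mRNA level: fold of untreated cells after 20 µM for 24 h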;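 for RAB11A mRNA level: fold of untreated cells after 20 µM for 24 h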;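 for RAC1 mRNA level: fold of untreated cells after 20 µM for 24 h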;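 for RARa mRNA level: fold of untreated cells after 20 µM for 24 h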
Experimental: RNA was extracted from individual retinas or tissue sections (brain, liver). Total RNA from retinas was extracted using TRIzol Reagent (Invitrogen, # 15596-018), and reverse transcription was performed using the High-Capacity cDNA Reverse Transcription Kit (Applied Biosystems, # 4374966) according to the manufacturer’s instructions. Quantitative real-time PCR was performed in a Light Cycler 480 Instrument (Roche) with Taqman LightCycler 480 probes Master Mix (Roche, #4887301001) using Taqman assays (Life Technologies). For cells in culture, RNA was extracted using RNeasy Plus Mini Kit (Qiagen, #74034), and reverse transcription was performed using Superscript III (Invitrogen, #18080051). Quantitative RT-PCR analysis were performed using Power SYBR Green PCR Master Mix (Applied Biosystems, #4368708) on a StepOne Plus Real-Time PCR System (Applied Biosystems). Mm01184405_m1 probe (Thermofisher) was used for rhodopsin and the sequence of all the other probes used for qPCR is included in Supplementary Table 2.
CMA index[14] was calculated using data set from[23]–[25]. Briefly, each element of the CMA network[13] has attributed a weight. As LAMP-2A is the rate-limiting component of CMA, it was given a weight of 2. Every other element received a weight of 1. Then, every element was attributed direction score that is +1 or −1 based on the known effect of a given element on CMA activity. The score was then calculated as the weighted/ directed average of expression counts of every element of the CMA network.

[3] = c0 = 2 (axis unlabelled; ANOVA calls row factor Time)
[4] = Fig. 2d (left), one sample t test

Cc1ccc(C2=Nc3ccc(Cl)cc3OC2)cc1 [AR7, reference compound]
effect on macroautophagy ([1]; NIH3T3, MRT-sensitive proteolysis, LC3-II flux, mCherry-GFP-LC3 reporter): did not have the inhibitory effect on macroautophagy | APG (Fig. S3e) [1, 3]: 0.9242 | AUT (Fig. S3e) [1, 3]: 2.505 | AV (Fig. S3e) [1, 3]: 3.429 | APG (Fig. S3e) ([1]; c0 = 5 (axis unlabelled)): 0.8222 | AUT (Fig. S3e) ([1]; c0 = 5 (axis unlabelled)): 2.321 | AV (Fig. S3e) ([1]; c0 = 5 (axis unlabelled)): 3.1431 | APG (Fig. S3e) ([1]; c0 = 10 (axis unlabelled)): 0.7738 | AUT (Fig. S3e) ([1]; c0 = 10 (axis unlabelled)): 2.246 | AV (Fig. S3e) ([1]; c0 = 10 (axis unlabelled)): 3.0194 | APG (Fig. S3e) ([1]; c0 = 15 (axis unlabelled)): 0.7216 | AUT (Fig. S3e) ([1]; c0 = 15 (axis unlabelled)): 2.244 | AV (Fig. S3e) ([1]; c0 = 15 (axis unlabelled)): 2.965 | APG (Fig. S3e) ([1]; c0 = 20 (axis unlabelled)): 0.9029 | AUT (Fig. S3e) ([1]; c0 = 20 (axis unlabelled)): 2.059 | AV (Fig. S3e) ([1]; c0 = 20 (axis unlabelled)): 2.962 | APG (Fig. S3e) ([1]; c0 = 25 (axis unlabelled)): 0.9112 | AUT (Fig. S3e) ([1]; c0 = 25 (axis unlabelled)): 2.774 | AV (Fig. S3e) ([1]; c0 = 25 (axis unlabelled)): 3.685 | APG (Fig. S3e) ([1]; c0 = 30 (axis unlabelled)): 0.9867 | AUT (Fig. S3e) ([1]; c0 = 30 (axis unlabelled)): 2.8387 | AV (Fig. S3e) ([1]; c0 = 30 (axis unlabelled)): 3.825 | APG (Fig. S3e) ([1]; c0 = 40 (axis unlabelled)): 1.111 | AUT (Fig. S3e) ([1]; c0 = 40 (axis unlabelled)): 2.723 | AV (Fig. S3e) ([1]; c0 = 40 (axis unlabelled)): 3.834 | APG (Fig. S3e) ([1]; c0 = 50 (axis unlabelled)): 0.7488 | AUT (Fig. S3e) ([1]; c0 = 50 (axis unlabelled)): 3.18 | AV (Fig. S3e) ([1]; c0 = 50 (axis unlabelled)): 3.929 | AKT1 mRNA level [2, 4]: 1.38 and 0.89 and 1.44 and 0.86 and 1.06 and 1.51 and 1.42 | AKT2 mRNA level [2, 4]: 1.44 and 0.97 and 1.15 and 0.87 and 1.19 and 1.60 and 1.34 | CTSA mRNA level [2, 4]: 1.25 and 1.34 and 1.07 and 0.82 and 1.13 and 1.21 and 1.33 | EEF1A1 mRNA level [2, 4]: 1.17 and 1.49 and 1.26 and 1.78 and 0.79 and 1.54 | HSC70 mRNA level [2, 4]: 1.32 and 1.34 and 1.36 and 1.12 and 1.37 and 1.41 | HSP40 mRNA level [2, 4]: 0.98 and 1.05 and 1.10 and 0.85 and 0.99 and 0.72 and 1.06 | HSP90AA1 mRNA level [2, 4]: 1.28 and 0.87 and 0.85 and 0.56 and 0.80 and 0.78 and 0.86 | HSP90AB1 mRNA level [2, 4]: 0.93 and 0.89 and 0.92 and 0.63 and 0.94 and 0.80 | LAMP2A mRNA level [2, 4]: 1.15 and 1.53 and 1.46 and 1.28 and 1.31 and 1.13 and 1.27 | NCOR1 mRNA level [2, 4]: 1.16 and 1.11 and 1.26 and 0.79 and 0.85 and 0.87 and 1.01 | NFATC1 mRNA level [2, 4]: 1.04 and 0.72 and 1.34 and 0.83 and 1.03 and 1.25 and 1.28 | NFE2L2 mRNA level [2, 4]: 1.81 and 0.87 and 0.79 and 0.50 and 0.68 and 0.86 and 1.01 | PHLPP1 mRNA level [2, 4]: 1.42 and 1.17 and 1.27 and 2.72 and 1.10 and 1.18 and 1.28 | RAB11A mRNA level [2, 4]: 1.10 and 1.22 and 1.00 and 0.72 and 0.93 and 1.01 | RAC1 mRNA level [2, 4]: 1.21 and 1.55 and 1.26 and 1.08 and 1.31 and 1.54 and 1.42 | RARa mRNA level [2, 4]: 0.99 and 0.33 and 1.02 and 0.95 and 0.90 and 0.86 | RICTOR mRNA level [2, 4]: 0.52 and 1.27 and 0.85 and 0.95 and 1.43 | CMA activation score ([2]; Fig. 2d (right)): -0.03086 and 0.1313 and 0.07179 and -0.1523

Source: PMC9304322, “Targeting retinoic acid receptor alpha-corepressor interaction activates chaperone-mediated autophagy and protects against retinal degeneration” (Nature Communications, 2022)
